Each structure is given as a SMILES string. In brackets after ≈: the same amount, converted by molar mass.

This data set in a line: Oil solubility test in benzyl benzoate (HPLC). Format: physicochemical. The settings on record: organic solvent or mixture, thermodynamic from solid, 25° C., shaken 2 h. Here is the method: The solubility test was performed by quantitative analysis using an external standard method of high-performance liquid chromatography.
Reference sample solution: 10 mg of reference sample was weighed, placed in a 20 mL volumetric flask, diluted to the scale with 80% acetonitrile, and shaken uniformly.
Test sample solution: an appropriate amount of sample was dissolved in benzyl benzoate to obtain a saturated solution. The mixture was placed in a shaker and shaken at 25° C. and 800 rpm for 2 h. The sample solution was filtered, and 100 μL of filtrate was added to a 10 mL volumetric flask, diluted to the scale with 80% acetonitrile, and shaken uniformly.
A word on the solubility: it is the concentration that dissolves in the medium under given conditions. In the case of `CCCCCCCCOC(=O)OCN1C(=O)CCc2ccc(CCN3CCN(c4cc(F)cc5sccc45)CC3)cc21` [Compound 26, (7-(2-(4-(6-Fluorobenzo[b]thiophen-4-yl)piperazin-1-yl)ethyl)-2-oxo-3,4-dihydroquinolin-1(2H)-yl) methyl octyl carbonate], the solubility at 2 h was above 200 mg/mL.

`CCCCC(C)(C)C(=O)OCN1C(=O)CCc2ccc(CCN3CCN(c4cc(F)cc5sccc45)CC3)cc21` [Compound 108, (7-(2-(4-(6-Fluorobenzo[b]thiophen-4-yl)piperazin-1-yl)ethyl)-2-oxo-3,4-dihydroquinolin-1(2H)-yl) methyl 2,2-dimethylhexanoate]: the solubility at 2 h was above 200 mg/mL.

For `CCCCCCCCCCCC(=O)OC(C)N1C(=O)CCc2ccc(CCN3CCN(c4cc(F)cc5sccc45)CC3)cc21` (centres unmarked) [Compound 13, 1-(7-(2-(4-(6-Fluorobenzo[b]thiophen-4-yl)piperazin-1-yl)ethyl)-2-oxo-3,4-dihydroquinolin-1(2H)-yl)ethyl dodecanoate], the solubility at 2 h is above 200 mg/mL.

Regarding `CCCCCCCCCCCCCCCCCC(=O)OCN1C(=O)CCc2ccc(CCN3CCN(c4cc(F)cc5sccc45)CC3)cc21` [Compound 68, (7-(2-(4-(6-Fluorobenzo[b]thiophen-4-yl)piperazin-1-yl)ethyl)-2-oxo-3,4-dihydroquinolin-1(2H)-yl) methyl stearate], the solubility at 2 h was above 200 mg/mL.

Turning to `CCCCCCCCCCCCCCCC(=O)OC(C)N1C(=O)CCc2ccc(CCN3CCN(c4cc(F)cc5sccc45)CC3)cc21` (centres unmarked) [Compound 15, 1-(7-(2-(4-(6-Fluorobenzo[b]thiophen-4-yl)piperazin-1-yl)ethyl)-2-oxo-3,4-dihydroquinolin-1(2H)-yl) ethyl palmitate], the solubility at 2 h was above 200 mg/mL.

For the molecule `CCCCCCCCCCCCCCCCCCCCCCCC(=O)OCN1C(=O)CCc2ccc(CCN3CCN(c4cc(F)cc5sccc45)CC3)cc21` [Compound 75, (7-(2-(4-(6-Fluorobenzo[b]thiophen-4-yl)piperazin-1-yl)ethyl)-2-oxo-3,4-dihydroquinolin-1(2H)-yl) methyl tetracosanoate], the solubility at 2 h was above 200 mg/mL.

With `[2H]c1cc(=O)n(COC(=O)CCCCCCCCCCC)c2cc(CCN3CCN(c4cc(F)cc5sccc45)CC3)ccc12` [Compound 51, (7-(2-(4-(6-Fluorobenzo[b]thiophen-4-yl)piperazin-1-yl)ethyl)-2-oxoquinolin-1(2H)-yl-4-d)methyl dodecanoate], the solubility at 2 h is above 200 mg/mL.

For `CCCCCCCCCCCCCCCCCCCC(=O)OCN1C(=O)CCc2ccc(CCN3CCN(c4cc(F)cc5sccc45)CC3)cc21` [Compound 69, (7-(2-(4-(6-Fluorobenzo[b]thiophen-4-yl)piperazin-1-yl)ethyl)-2-oxo-3,4-dihydroquinolin-1(2H)-yl) methyl icosanoate], the solubility at 2 h was above 200 mg/mL.

On to `CCCCCCCCCCCC(=O)OCn1c(=O)ccc2ccc(CCN3CCN(c4cc(F)cc5sccc45)CC3)cc21` [Compound 134, (7-(2-(4-(6-Fluorobenzo[b]thiophen-4-yl)piperazin-1-yl)ethyl)-2-oxoquinolin-1(2H)-yl)methyl dodecanoate], for which the solubility at 2 h is above 200 mg/mL.

For the molecule `CCCCCCCCCCCCCCOC(=O)OCN1C(=O)CCc2ccc(CCN3CCN(c4cc(F)cc5sccc45)CC3)cc21` [Compound 30, (7-(2-(4-(6-Fluorobenzo[b]thiophen-4-yl)piperazin-1-yl)ethyl)-2-oxo-3,4-dihydroquinolin-1(2H)-yl) methyl tetradecyl carbonate], the solubility at 2 h is above 200 mg/mL.

`CCCCCCCCCC(=O)OCn1c(=O)ccc2ccc(CCN3CCN(c4cc(F)cc5sccc45)CC3)cc21` [Compound 10, (7-(2-(4-(6-Fluorobenzo[b]thiophen-4-yl)piperazin-1-yl)ethyl)-2-oxoquinolin-1(2H)-yl)methyl decanoate]: the solubility at 2 h was above 200 mg/mL.

With `CCCCCCCCCCCOC(=O)OCN1C(=O)CCc2ccc(CCN3CCN(c4cc(F)cc5sccc45)CC3)cc21` [Compound 14, (7-(2-(4-(6-Fluorobenzo[b]thiophen-4-yl)piperazin-1-yl)ethyl)-2-oxo-3,4-dihydroquinolin-1(2H)-yl) methyl undecyl carbonate], the solubility at 2 h is above 200 mg/mL.

In the case of `CCCCCCCCCCNC(=O)OCN1C(=O)CCc2ccc(CCN3CCN(c4cc(F)cc5sccc45)CC3)cc21` [Compound 71, (7-(2-(4-(6-Fluorobenzo[b]thiophen-4-yl)piperazin-1-yl)ethyl)-2-oxo-3,4-dihydroquinolin-1(2H)-yl) methyl decylcarbamate], the solubility at 2 h is above 200 mg/mL.

As for `CCCCCC(CCCCC)C(=O)OCN1C(=O)CCc2ccc(CCN3CCN(c4cc(F)cc5sccc45)CC3)cc21` [Compound 112, (7-(2-(4-(6-Fluorobenzo[b]thiophen-4-yl)piperazin-1-yl)ethyl)-2-oxo-3,4-dihydroquinolin-1(2H)-yl) methyl 2-pentylheptanoate], the solubility at 2 h is above 200 mg/mL.

In the case of `CCCCCCCOC(=O)OCN1C(=O)CCc2ccc(CCN3CCN(c4cc(F)cc5sccc45)CC3)cc21` [Compound 25, (7-(2-(4-(6-Fluorobenzo[b]thiophen-4-yl)piperazin-1-yl)ethyl)-2-oxo-3,4-dihydroquinolin-1(2H)-yl) methyl heptyl carbonate], the solubility at 2 h is above 200 mg/mL.

Turning to `CCCCCCCCCCCCOC(=O)OCN1C(=O)CCc2ccc(CCN3CCN(c4cc(F)cc5sccc45)CC3)cc21` [Compound 29, Dodecyl ((7-(2-(4-(6-fluorobenzo[b]thiophen-4-yl)piperazin-1-yl)ethyl)-2-oxo-3,4-dihydroquinolin-1(2H)-yl)methyl) carbonate], the solubility at 2 h is above 200 mg/mL.

As for `CCCCCC(CCCCC)C(=O)OCn1c(=O)ccc2ccc(CCN3CCN(c4cc(F)cc5sccc45)CC3)cc21` [Compound 113, (7-(2-(4-(6-Fluorobenzo[b]thiophen-4-yl)piperazin-1-yl)ethyl)-2-oxoquinolin-1(2H)-yl)methyl 2-pentylheptanoate], the solubility at 2 h was above 200 mg/mL.

As for `CCCCCCCCCCCC(=O)OCn1c(=O)cc(F)c2ccc(CCN3CCN(c4cc(F)cc5sccc45)CC3)cc21` [Compound 38, (4-Fluoro-7-(2-(4-(6-fluorobenzo[b]thiophen-4-yl)piperazin-1-yl)ethyl)-2-oxoquinolin-1(2H)-yl)methyl dodecanoate], the solubility at 2 h is above 200 mg/mL.

`CCCCCCCC/C=C\CCCCCCCC(=O)OCn1c(=O)ccc2ccc(CCN3CCN(c4cc(F)cc5sccc45)CC3)cc21` [Compound 77, (7-(2-(4-(6-Fluorobenzo[b]thiophen-4-yl)piperazin-1-yl)ethyl)-2-oxoquinolin-1(2H)-yl)methyl oleate]: the solubility at 2 h is above 200 mg/mL.

For `CCCCCCCCCCCC(=O)OCN1C(=O)CC(C)(C)c2ccc(CCN3CCN(c4cc(F)cc5sccc45)CC3)cc21` [Compound 43, (7-(2-(4-(6-Fluorobenzo[b]thiophen-4-yl)piperazin-1-yl)ethyl)-4,4-dimethyl-2-oxo-3,4-dihydroquinolin-1(2H)-yl)methyl dodecanoate], the solubility at 2 h was above 200 mg/mL.

`CC(C)OC(=O)N1C(=O)CCc2ccc(CCN3CCN(c4cc(F)cc5sccc45)CC3)cc21` [Compound 4]: the solubility at 2 h amounted to 25.8 mg/mL (≈ 52 mM).

For the molecule `C=CCCCCCCCCC(=O)N1C(=O)CCc2ccc(CCN3CCN(c4cc(F)cc5sccc45)CC3)cc21` [Compound 132, 7-(2-(4-(6-Fluorobenzo[b]thiophen-4-yl)piperazin-1-yl)ethyl)-1-(undec-10-enoyl)-3,4-dihydroquinolin-2(1H)-one], the solubility at 2 h is above 200 mg/mL.

For `CCCCCCCCC(=O)OCN1C(=O)CCc2ccc(CCN3CCN(c4cc(F)cc5sccc45)CC3)cc21` [Compound 62, (7-(2-(4-(6-Fluorobenzo[b]thiophen-4-yl)piperazin-1-yl)ethyl)-2-oxo-3,4-dihydroquinolin-1(2H)-yl) methyl nonanoate], the solubility at 2 h was above 200 mg/mL.

As for `CCCCCCCCCCCCCCCC(=O)OCn1c(=O)ccc2ccc(CCN3CCN(c4cc(F)cc5sccc45)CC3)cc21` [Compound 9, (7-(2-(4-(6-Fluorobenzo[b]thiophen-4-yl)piperazin-1-yl)ethyl)-2-oxoquinolin-1(2H)-yl)methyl palmitate], the solubility at 2 h was above 200 mg/mL.

For the molecule `CCCCCCCCCC(=O)OCOC(=O)N1C(=O)CCc2ccc(CCN3CCN(c4cc(F)cc5sccc45)CC3)cc21` [Compound 133, (Decanoyloxy)methyl 7-(2-(4-(6-fluorobenzo[b]thiophen-4-yl)piperazin-1-yl)ethyl)-2-oxo-3,4-dihydroquinoline-1(2H)-carboxylate], the solubility at 2 h was above 200 mg/mL.

For the molecule `CCCCCCCCCCCCCCCCCCCCCCCCCCC(=O)OCN1C(=O)CCc2ccc(CCN3CCN(c4cc(F)cc5sccc45)CC3)cc21` [Compound 76, (7-(2-(4-(6-fluorobenzo[b]thiophen-4-yl)piperazin-1-yl)ethyl)-2-oxo-3,4-dihydroquinolin-1(2H)-yl)methyl heptacosanoate], the solubility at 2 h is above 200 mg/mL.

Consider `CCCCCCCCCCCCCC(=O)OCN1C(=O)CCc2ccc(CCN3CCN(c4cc(F)cc5sccc45)CC3)cc21` [Compound 65, (7-(2-(4-(6-Fluorobenzo[b]thiophen-4-yl)piperazin-1-yl)ethyl)-2-oxo-3,4-dihydroquinolin-1(2H)-yl) methyl tetradecanoate], for which the solubility at 2 h is above 200 mg/mL.

`CCCCCCCCCCCCCCCCC(=O)OCN1C(=O)CCc2ccc(CCN3CCN(c4cc(F)cc5sccc45)CC3)cc21` [Compound 67, (7-(2-(4-(6-Fluorobenzo[b]thiophen-4-yl)piperazin-1-yl)ethyl)-2-oxo-3,4-dihydroquinolin-1(2H)-yl) methyl heptadecanoate]: the solubility at 2 h is above 200 mg/mL.

Take `CCCCCCCCCCCCCCCCCCCCCC(=O)OCN1C(=O)CCc2ccc(CCN3CCN(c4cc(F)cc5sccc45)CC3)cc21` [Compound 74, (7-(2-(4-(6-fluorobenzo[b]thiophen-4-yl)piperazin-1-yl)ethyl)-2-oxo-3,4-dihydroquinolin-1(2H)-yl)methyl docosanoate]: the solubility at 2 h was above 200 mg/mL.

The values above are taken from US20260250272A1, “N-SUBSTITUTED QUINOLINONE COMPOUND, PREPARATION METHOD THEREFOR AND USE THEREOF” (VIGONVITA LIFE SCIENCES CO., LTD., priority 2022, published 2026).
